Data as given in patent publication US10168342B2, “Lipid probes and uses thereof” (THE SCRIPPS RESEARCH INSTITUTE, priority 2015, dated 2019).
Like-named read-outs stand apart in the source and are kept apart here.

Tests used:
[1] = biological target: T1, AEA-DA lipid probe targets in Neuro2a cells (Mus musculus, UniProt O88531)
T1 sequence (O88531 28-306): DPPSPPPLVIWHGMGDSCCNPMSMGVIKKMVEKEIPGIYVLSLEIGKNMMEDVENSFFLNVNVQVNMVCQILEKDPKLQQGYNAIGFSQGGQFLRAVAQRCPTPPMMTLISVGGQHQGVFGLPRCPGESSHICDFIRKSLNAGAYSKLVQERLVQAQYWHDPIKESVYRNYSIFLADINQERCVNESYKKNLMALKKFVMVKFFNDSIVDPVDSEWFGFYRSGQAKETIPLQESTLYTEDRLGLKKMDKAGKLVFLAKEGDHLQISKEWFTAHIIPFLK

[2] = biological target: T2, AEA-DA lipid probe targets in Neuro2a cells (Mus musculus, UniProt P52825)
T2 sequence (P52825 26-658): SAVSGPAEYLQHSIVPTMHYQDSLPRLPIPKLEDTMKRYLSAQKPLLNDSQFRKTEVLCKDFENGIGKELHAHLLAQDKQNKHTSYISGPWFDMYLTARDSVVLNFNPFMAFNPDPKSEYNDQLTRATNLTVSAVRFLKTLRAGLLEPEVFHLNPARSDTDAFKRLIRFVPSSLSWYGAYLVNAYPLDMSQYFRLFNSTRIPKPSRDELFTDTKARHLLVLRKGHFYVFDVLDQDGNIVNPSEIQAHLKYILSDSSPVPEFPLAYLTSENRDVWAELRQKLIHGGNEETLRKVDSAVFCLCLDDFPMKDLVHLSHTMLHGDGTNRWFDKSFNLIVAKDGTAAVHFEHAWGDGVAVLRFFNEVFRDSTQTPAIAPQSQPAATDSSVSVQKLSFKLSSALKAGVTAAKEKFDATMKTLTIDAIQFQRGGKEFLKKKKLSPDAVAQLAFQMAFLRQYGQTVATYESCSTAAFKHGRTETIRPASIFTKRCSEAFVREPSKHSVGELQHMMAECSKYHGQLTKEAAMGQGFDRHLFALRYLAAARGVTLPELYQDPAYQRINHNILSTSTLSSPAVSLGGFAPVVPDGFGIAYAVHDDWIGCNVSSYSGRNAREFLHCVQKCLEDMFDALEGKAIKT

[3] = biological target: T3, AEA-DA lipid probe targets in Neuro2a cells (Mus musculus, UniProt Q0VGU4)
T3 sequence (Q0VGU4 24-617): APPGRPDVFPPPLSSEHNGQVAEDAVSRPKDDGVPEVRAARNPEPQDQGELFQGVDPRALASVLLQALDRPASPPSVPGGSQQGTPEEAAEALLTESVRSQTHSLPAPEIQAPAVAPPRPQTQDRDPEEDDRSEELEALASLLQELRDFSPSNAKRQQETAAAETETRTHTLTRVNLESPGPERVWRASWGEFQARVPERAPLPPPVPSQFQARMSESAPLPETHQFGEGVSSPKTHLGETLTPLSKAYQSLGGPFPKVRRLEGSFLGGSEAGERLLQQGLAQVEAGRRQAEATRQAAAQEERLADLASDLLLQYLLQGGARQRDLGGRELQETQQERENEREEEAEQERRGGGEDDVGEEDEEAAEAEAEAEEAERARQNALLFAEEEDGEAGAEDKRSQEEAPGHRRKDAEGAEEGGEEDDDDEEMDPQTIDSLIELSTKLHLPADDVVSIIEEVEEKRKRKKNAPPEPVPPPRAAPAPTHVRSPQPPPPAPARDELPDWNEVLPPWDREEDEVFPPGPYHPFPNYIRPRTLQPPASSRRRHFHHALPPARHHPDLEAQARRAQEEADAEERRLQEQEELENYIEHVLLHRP

[4] = biological target: T4, AEA-DA lipid probe targets in Neuro2a cells (Mus musculus, UniProt Q3V009)
T4 sequence (Q3V009 25-227): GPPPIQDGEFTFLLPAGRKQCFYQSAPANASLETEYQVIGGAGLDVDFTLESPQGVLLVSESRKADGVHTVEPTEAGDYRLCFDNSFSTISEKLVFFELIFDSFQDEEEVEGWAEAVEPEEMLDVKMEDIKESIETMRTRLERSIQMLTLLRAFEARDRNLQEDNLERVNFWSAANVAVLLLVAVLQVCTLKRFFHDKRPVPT

[5] = biological target: T5, AEA-DA lipid probe targets in Neuro2a cells (Mus musculus, UniProt Q9CPQ3); conditions: for SILAC ratio, TOMM22 (Q9CPQ3): Neuro2a cells, AEA-DA probe
T5 sequence (Q9CPQ3 1-142): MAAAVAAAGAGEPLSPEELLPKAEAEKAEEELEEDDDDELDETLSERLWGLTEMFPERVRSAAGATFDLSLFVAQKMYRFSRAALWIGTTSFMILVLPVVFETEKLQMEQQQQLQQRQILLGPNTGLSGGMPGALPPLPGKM

[6] = biological target: T6, AEA-DA lipid probe targets in Neuro2a cells (Mus musculus, UniProt Q9CY50)
T6 sequence (Q9CY50 22-286): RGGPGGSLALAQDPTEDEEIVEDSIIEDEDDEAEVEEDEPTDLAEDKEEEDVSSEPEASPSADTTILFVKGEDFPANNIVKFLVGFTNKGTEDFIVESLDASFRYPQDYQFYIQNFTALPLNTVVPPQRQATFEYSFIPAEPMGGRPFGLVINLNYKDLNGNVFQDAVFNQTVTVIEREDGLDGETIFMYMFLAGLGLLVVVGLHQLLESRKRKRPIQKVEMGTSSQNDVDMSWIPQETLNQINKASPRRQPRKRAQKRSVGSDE

[7] = biological target: AEA-DA lipid probe targets in Neuro2a cells (Mus musculus, UniProt Q9DCH4)
[8] = biological target: AEA-DA lipid probe targets in Neuro2a cells (Mus musculus, UniProt Q9JKW0)
Chain of AEA-DA lipid probe targets in Neuro2a cells (Mus musculus, UniProt Q9JKW0) (Q9JKW0 whole entry): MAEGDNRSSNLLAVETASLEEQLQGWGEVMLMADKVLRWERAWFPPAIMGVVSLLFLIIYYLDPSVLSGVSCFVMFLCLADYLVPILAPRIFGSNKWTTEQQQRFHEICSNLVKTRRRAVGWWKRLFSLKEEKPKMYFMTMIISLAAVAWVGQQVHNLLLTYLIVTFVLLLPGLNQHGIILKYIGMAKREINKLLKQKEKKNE

Chain of AEA-DA lipid probe targets in Neuro2a cells (Mus musculus, UniProt Q9DCH4) (Q9DCH4 whole entry): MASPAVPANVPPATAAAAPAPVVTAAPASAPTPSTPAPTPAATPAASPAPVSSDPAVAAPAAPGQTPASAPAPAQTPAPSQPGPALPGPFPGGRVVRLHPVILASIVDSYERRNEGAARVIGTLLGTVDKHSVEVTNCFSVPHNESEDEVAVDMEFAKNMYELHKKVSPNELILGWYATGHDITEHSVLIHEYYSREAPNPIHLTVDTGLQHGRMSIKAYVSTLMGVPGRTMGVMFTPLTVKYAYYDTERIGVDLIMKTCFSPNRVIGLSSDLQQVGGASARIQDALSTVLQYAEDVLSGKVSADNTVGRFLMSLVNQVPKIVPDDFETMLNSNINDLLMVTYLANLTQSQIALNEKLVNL

## CCCCC/C=C\C/C=C\C/C=C\C/C=C\CCCC(=O)NCCO [AEA, anandamide, reference compound]
[1]; competitor 200 μM
  SILAC ratio Ppt1: 1.1
[2]; competitor 200 μM
  SILAC ratio, Cpt2: 1.1
[3]; competitor 200 μM
  SILAC ratio, Vgf: 1.0
[4]; competitor 200 μM
  SILAC ratio, Tmed1: 2.1
[5]; competitor 200 μM
  SILAC ratio, TOMM22 (Q9CPQ3): 1.4
  SILAC ratio, Tomm22: 1.4
[6]; competitor 200 μM
  SILAC ratio, Ssr1: 1.9
[7]; competitor 200 μM
  SILAC ratio Eif3f: 1.4
[8]; competitor 200 μM
  SILAC ratio Arl6ip1: 1.5

## O=C(/C=C/c1cccnc1)NCCCCC1CCN(C(=O)c2ccccc2)CC1 [FK-866, reference compound]
[1]; competitor 25 μM
  SILAC ratio Ppt1: 0.8
[2]; competitor 25 μM
  SILAC ratio, Cpt2: 3.1
[3]; competitor 25 μM
  SILAC ratio, Vgf: 1.1
[4]; competitor 25 μM
  SILAC ratio, Tmed1: 1.3
[5]; competitor 25 μM
  SILAC ratio, TOMM22 (Q9CPQ3): 1.1
  SILAC ratio, Tomm22: 1.1
[6]; competitor 25 μM
  SILAC ratio, Ssr1: 1.3
[7]; competitor 25 μM
  SILAC ratio Eif3f: 1.3
[8]; competitor 25 μM
  SILAC ratio Arl6ip1: 1.0

## CN1CCN(C(=O)c2c(-c3ccccc3)c3cc([N+](=O)[O-])ccc3n2C)CC1 [KML110, (1-Methyl-5-nitro-3-phenyl-1H-indol-2-yl)(4-methylpiperazin-1-yl)methanone]
[1]; competitor 25 μM
  SILAC ratio Ppt1: 1.2
[2]; competitor 25 μM
  SILAC ratio, Cpt2: 1.5
[3]; competitor 25 μM
  SILAC ratio, Vgf: 1.4
[4]; competitor 25 μM
  SILAC ratio, Tmed1: 1.6
[5]; competitor 25 μM
  SILAC ratio, Tomm22: 1.3
[6]; competitor 25 μM
  SILAC ratio, Ssr1: 1.7
[7]; competitor 25 μM
  SILAC ratio Eif3f: 1.3
[8]; competitor 25 μM
  SILAC ratio Arl6ip1: 1.4

## CN1CCN(C(=O)c2[nH]c3ccc([N+](=O)[O-])cc3c2-c2ccccc2)CC1 [MJN228, (4-Methylpiperazin-1-yl)(5-nitro-3-phenyl-1H-indol-2-yl)methanone]
[1]; competitor 10 μM
  SILAC ratio Ppt1: 1.5
[1]; competitor 25 μM
  SILAC ratio Ppt1: 1.5
[1]; competitor 50 μM
  SILAC ratio Ppt1: 2.1
[1]; competitor 100 μM
  SILAC ratio Ppt1: 4.3
[2]; competitor 10 μM
  SILAC ratio, Cpt2: 1.3
[2]; competitor 25 μM
  SILAC ratio, Cpt2: 1.7
[2]; competitor 50 μM
  SILAC ratio, Cpt2: 2.7
[2]; competitor 100 μM
  SILAC ratio, Cpt2: 5.5
[3]; competitor 10 μM
  SILAC ratio, Vgf: 1.3
[3]; competitor 25 μM
  SILAC ratio, Vgf: 1.3
[3]; competitor 50 μM
  SILAC ratio, Vgf: 1.1
[3]; competitor 100 μM
  SILAC ratio, Vgf: 1.0
[4]; competitor 10 μM
  SILAC ratio, Tmed1: 1.1
[4]; competitor 25 μM
  SILAC ratio, Tmed1: 1.6
[4]; competitor 50 μM
  SILAC ratio, Tmed1: 2.1
[4]; competitor 100 μM
  SILAC ratio, Tmed1: 2.2
[5]; competitor 25 μM
  SILAC ratio, TOMM22 (Q9CPQ3): 1.2
  SILAC ratio, Tomm22: 1.2
[5]; competitor 10 μM
  SILAC ratio, Tomm22: 1.1
[5]; competitor 50 μM
  SILAC ratio, Tomm22: 1.2
[5]; competitor 100 μM
  SILAC ratio, Tomm22: 1.8
[6]; competitor 10 μM
  SILAC ratio, Ssr1: 1.3
[6]; competitor 25 μM
  SILAC ratio, Ssr1: 1.7
[6]; competitor 50 μM
  SILAC ratio, Ssr1: 1.8
[6]; competitor 100 μM
  SILAC ratio, Ssr1: 3.0
[7]; competitor 10 μM
  SILAC ratio Eif3f: 1.0
[7]; competitor 25 μM
  SILAC ratio Eif3f: 1.0
[7]; competitor 100 μM
  SILAC ratio Eif3f: 0.9
[8]; competitor 10 μM
  SILAC ratio Arl6ip1: 0.8
[8]; competitor 25 μM
  SILAC ratio Arl6ip1: 1.6
[8]; competitor 100 μM
  SILAC ratio Arl6ip1: 1.5

## C=CCN(C)CCCCCCOc1ccc(C(=O)c2ccc(Br)cc2)c(F)c1 [Ro 48-8071, reference compound]
[1]; competitor 25 μM
  SILAC ratio Ppt1: 1.6
[2]; competitor 25 μM
  SILAC ratio, Cpt2: 2.1
[3]; competitor 25 μM
  SILAC ratio, Vgf: 0.9
[4]; competitor 25 μM
  SILAC ratio, Tmed1: 1.2
[5]; competitor 25 μM
  SILAC ratio, TOMM22 (Q9CPQ3): 1.0
  SILAC ratio, Tomm22: 1.0
[6]; competitor 25 μM
  SILAC ratio, Ssr1: 1.3
[7]; competitor 25 μM
  SILAC ratio Eif3f: 0.9
[8]; competitor 25 μM
  SILAC ratio Arl6ip1: 1.1
